# Measured values taken from ChEMBL document CHEMBL5653631, “A Potent and Selective ULK1 Inhibitor Suppresses Autophagy and Sensitizes Cancer Cells to Nutrient Stress” (iScience, 2018).
# Columns and labels:
# [1] = molecular target: Cyclin-dependent kinase-like 1 (Homo sapiens) (UniProt Q00532); experiment: Inhibition of human recombinant CDKL1 at 40 nM related to control ULK1
# [2] = molecular target: Cyclin-dependent kinase 2 (Homo sapiens) (UniProt P24941); experiment: Inhibition of human recombinant CDK2 at 500 nM in presence of ATP by radiometric assay relative to control
# [3] = molecular target: T1, Serine/threonine-protein kinase TBK1 (Homo sapiens) (UniProt Q9UHD2); experiment: Inhibition of human recombinant TBK1 at 500 nM in presence of ATP by radiometric assay relative to control
# T1 sequence (whole entry): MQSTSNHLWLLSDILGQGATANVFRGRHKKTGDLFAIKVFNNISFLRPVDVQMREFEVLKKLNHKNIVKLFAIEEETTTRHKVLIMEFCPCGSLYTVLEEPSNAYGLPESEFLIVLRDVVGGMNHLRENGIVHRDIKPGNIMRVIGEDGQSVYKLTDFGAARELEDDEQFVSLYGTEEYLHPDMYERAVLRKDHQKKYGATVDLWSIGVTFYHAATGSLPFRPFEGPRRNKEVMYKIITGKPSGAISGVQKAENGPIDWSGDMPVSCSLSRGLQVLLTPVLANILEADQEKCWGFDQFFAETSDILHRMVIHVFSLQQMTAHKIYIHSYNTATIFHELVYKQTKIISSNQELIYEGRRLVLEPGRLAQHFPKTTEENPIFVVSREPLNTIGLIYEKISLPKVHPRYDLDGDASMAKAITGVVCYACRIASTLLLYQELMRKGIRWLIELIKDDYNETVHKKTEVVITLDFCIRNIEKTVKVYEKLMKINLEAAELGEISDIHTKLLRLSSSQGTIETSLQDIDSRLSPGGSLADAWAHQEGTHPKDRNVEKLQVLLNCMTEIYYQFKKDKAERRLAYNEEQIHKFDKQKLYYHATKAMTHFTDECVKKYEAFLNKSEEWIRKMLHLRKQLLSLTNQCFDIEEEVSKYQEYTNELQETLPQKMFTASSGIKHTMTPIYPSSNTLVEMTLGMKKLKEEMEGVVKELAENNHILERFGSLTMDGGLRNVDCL
# [4] = molecular target: T2, NUAK family SNF1-like kinase 1 (Homo sapiens) (UniProt O60285); experiment: Inhibition of human recombinant NuaK1 at 500 nM related to control ULK1
# T2 sequence (whole entry): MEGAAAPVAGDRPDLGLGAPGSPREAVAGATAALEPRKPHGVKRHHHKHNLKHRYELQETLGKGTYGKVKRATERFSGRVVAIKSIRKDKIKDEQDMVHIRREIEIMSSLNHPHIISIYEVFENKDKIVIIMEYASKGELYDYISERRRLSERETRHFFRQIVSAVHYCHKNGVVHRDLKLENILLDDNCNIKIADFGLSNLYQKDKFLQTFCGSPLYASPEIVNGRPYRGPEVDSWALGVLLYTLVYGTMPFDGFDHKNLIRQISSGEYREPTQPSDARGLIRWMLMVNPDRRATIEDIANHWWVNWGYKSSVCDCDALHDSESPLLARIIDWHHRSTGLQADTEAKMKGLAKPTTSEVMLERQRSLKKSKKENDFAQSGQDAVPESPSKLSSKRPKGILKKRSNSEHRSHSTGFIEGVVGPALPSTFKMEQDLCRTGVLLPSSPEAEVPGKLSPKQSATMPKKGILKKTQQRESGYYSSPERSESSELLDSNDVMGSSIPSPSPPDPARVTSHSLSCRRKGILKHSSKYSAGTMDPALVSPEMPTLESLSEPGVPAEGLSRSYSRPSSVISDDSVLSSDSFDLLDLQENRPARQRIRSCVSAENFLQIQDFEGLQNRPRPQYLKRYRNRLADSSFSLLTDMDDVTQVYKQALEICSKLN
# [5] = molecular target: Tyrosine-protein kinase Lyn (Homo sapiens) (UniProt P07948); experiment: Inhibition of human recombinant LYN at 15 nM in presence of ATP by radiometric assay relative to control
# Sequence of Tyrosine-protein kinase Lyn (Homo sapiens) (P07948 2-512 limits assumed): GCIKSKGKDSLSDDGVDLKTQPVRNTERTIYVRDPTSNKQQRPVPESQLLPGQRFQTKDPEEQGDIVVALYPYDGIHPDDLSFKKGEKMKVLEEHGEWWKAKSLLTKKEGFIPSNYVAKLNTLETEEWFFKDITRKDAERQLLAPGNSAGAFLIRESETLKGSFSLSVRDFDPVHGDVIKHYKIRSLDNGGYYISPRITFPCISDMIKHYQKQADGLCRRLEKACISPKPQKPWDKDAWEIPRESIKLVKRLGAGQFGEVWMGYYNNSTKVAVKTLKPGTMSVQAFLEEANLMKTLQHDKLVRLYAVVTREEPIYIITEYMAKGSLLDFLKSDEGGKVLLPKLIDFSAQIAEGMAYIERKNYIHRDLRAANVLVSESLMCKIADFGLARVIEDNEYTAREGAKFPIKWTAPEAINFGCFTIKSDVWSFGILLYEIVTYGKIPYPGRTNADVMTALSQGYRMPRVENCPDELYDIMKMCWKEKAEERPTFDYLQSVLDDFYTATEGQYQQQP
# [6] = molecular target: T3, Serine/threonine-protein kinase TAO3 (Homo sapiens) (UniProt Q9H2K8); experiment: Inhibition of human recombinant TAO3 at 15 nM in presence of ATP by radiometric assay relative to control
# T3 sequence (whole entry): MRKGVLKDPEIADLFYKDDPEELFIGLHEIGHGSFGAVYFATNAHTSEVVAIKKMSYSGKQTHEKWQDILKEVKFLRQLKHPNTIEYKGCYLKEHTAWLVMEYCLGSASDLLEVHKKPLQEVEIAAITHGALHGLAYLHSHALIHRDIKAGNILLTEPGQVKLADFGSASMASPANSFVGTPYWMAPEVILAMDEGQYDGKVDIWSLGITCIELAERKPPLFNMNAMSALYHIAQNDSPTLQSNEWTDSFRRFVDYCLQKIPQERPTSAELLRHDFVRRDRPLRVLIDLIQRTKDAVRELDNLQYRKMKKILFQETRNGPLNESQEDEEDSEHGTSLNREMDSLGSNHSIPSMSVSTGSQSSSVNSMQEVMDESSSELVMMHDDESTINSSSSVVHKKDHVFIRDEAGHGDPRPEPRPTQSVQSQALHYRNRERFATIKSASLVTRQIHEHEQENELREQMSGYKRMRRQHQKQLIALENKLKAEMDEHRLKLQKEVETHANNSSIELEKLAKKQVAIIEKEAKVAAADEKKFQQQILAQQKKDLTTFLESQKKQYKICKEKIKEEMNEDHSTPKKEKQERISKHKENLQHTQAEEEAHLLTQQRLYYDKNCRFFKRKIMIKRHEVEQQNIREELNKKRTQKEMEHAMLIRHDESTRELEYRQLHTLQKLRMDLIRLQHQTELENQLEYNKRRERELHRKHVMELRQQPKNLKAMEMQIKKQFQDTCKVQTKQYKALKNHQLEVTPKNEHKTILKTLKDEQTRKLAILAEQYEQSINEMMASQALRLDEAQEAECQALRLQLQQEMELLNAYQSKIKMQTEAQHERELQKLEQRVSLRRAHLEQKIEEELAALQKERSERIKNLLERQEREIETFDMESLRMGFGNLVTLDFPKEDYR
# [7] = molecular target: T4, Serine/threonine-protein kinase Sgk2 (Homo sapiens) (UniProt Q9HBY8); experiment: Inhibition of human recombinant SGK2 at 15 nM in presence of ATP by radiometric assay relative to control
# T4 sequence (whole entry): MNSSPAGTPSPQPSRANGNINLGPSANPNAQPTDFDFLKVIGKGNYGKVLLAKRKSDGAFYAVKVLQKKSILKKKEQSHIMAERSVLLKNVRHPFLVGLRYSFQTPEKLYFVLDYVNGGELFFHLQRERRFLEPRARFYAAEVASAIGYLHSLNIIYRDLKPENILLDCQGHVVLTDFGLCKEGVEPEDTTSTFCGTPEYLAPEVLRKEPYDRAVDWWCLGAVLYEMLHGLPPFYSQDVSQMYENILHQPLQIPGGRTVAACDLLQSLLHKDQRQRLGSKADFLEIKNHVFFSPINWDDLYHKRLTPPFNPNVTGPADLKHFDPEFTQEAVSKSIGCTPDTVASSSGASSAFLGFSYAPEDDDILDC
# Sequence of Cyclin-dependent kinase-like 1 (Homo sapiens) (Q00532 whole entry): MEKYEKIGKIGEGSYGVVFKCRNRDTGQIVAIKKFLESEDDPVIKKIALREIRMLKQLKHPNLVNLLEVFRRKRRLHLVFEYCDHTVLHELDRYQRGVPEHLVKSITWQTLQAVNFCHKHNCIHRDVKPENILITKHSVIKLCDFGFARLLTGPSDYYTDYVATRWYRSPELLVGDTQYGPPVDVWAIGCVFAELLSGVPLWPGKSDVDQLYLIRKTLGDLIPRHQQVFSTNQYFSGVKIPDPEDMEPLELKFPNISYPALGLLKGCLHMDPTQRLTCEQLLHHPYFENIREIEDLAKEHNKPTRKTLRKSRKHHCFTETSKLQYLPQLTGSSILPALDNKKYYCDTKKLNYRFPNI
smiles,measurement,setting,value
O=C(N[C@@H](C1CC1)C(F)(F)F)c1cc(-c2cnn3cc(-c4ccc(F)cc4)cnc23)cs1,fold change (FC),[1],0.21
CNC(=O)c1ccccc1Oc1nc(Nc2cc(OC)c(OC)c(OC)c2)ncc1Br,inhibition,[2],4%
same,inhibition,[3],0%
same,fold change (FC),[4],0.96
CC(C)[C@H](NC(=O)c1cc(-c2cnn3cc(-c4ccc(OCCN5CCCCC5)cc4)cnc23)cs1)C(F)(F)F,inhibition,[5],19%
same,inhibition,[6],1%
same,inhibition,[7],0%
